The target in one experiment is T1, GST-tagged FAK (Homo sapiens, UniProt Q05397).
T1 construct: purchased Invitrogen PV3832
Briefly: Biochemical assay for FAK activity, Assay 1: phosphorylation of peptide substrate with radio-labeled ATP. The settings on record: 5 μM ATP, 30 min pre-incubation; for IC50: read-out: Assay 1 FAK TRF PXC50 (converted). As to the method: GST-tagged (glutathione S-transferase-tagged) FAK was purchased from Invitrogen (PV3832) (www.invitrogen.com). […] To measure inhibitors of FAK, compounds were first prepared as a 10× stock in 10% DMSO. […] A 6-nM GST-FAK solution was prepared in 1.1× reaction buffer containing 44 mM HEPES, pH=7.2, 11 mM MgCl2, 2.2 mM MnCl2, 1.1 mM DTT and 0.011% Tween-20. Then, 20 μL of the 6 nM GST-FAK solution were pre-incubated with the compounds for 30 min at room temperature. […] The reaction was allowed to proceed for 90 min before being quenched with 40 μL of 1% H3PO4. A portion of the reaction mixture (60 μL) was transferred to a phospho-cellulose filter plate (Millipore; www.millipore.com, MAPHNOB50) and incubated for 20 minutes. The plate was filtrated, washed three times using 150 μL of 0.5% H3PO4 and dried at 50° C. for 30 min. After the addition of 60 μL Microscint-20 to the plate, radioactivity was measured using a TopCount (PerkinElmer; www.PerkinElmer.com).

Experiment [1] deals with T2, Full length Human FAK (Flag-His-TEV-FAK1) (Homo sapiens, UniProt Q05397).
T2 construct: Full length Human FAK was expressed using baculovirus in Sf9 cells; made in house; host or cells: baculovirus in Sf9 cells
Briefly: Biochemical assay for FAK activity, Assay 2: LANCE Ultra ULight peptide phosphorylation, 665 nm/615 nm ratio. The settings on record: Flag-His-TEV-FAK1, 10 μM ATP, 30 min pre-incubation; for IC50: read-out: Assay 2 FAK H 31284A TRF PXC50 (converted). As to the method:
Flag-His-TEV-FAK1 was prepared in-house. Full length Human FAK was expressed using baculovirus in Sf9 cells with N-terminal FLAG-6×His tags followed by a TEV cleavage site (FLAG-6×His-TEV-huFAK). […] To measure inhibitors of FAK, compounds were first prepared as a 100× stock in 100% DMSO. […] After incubating for 120 minutes at room temperature, the reaction is quenched by adding 5 uL of 20 mM EDTA and 5nMEu-Anti-pTyr antibody in 1× LANCE detection buffer.

Results on 27 molecules are retold here after patent US20140155410A1 (GlaxoSmithKline LLC, priority 2008, published 2014).

T1 sequence (Q05397 whole entry): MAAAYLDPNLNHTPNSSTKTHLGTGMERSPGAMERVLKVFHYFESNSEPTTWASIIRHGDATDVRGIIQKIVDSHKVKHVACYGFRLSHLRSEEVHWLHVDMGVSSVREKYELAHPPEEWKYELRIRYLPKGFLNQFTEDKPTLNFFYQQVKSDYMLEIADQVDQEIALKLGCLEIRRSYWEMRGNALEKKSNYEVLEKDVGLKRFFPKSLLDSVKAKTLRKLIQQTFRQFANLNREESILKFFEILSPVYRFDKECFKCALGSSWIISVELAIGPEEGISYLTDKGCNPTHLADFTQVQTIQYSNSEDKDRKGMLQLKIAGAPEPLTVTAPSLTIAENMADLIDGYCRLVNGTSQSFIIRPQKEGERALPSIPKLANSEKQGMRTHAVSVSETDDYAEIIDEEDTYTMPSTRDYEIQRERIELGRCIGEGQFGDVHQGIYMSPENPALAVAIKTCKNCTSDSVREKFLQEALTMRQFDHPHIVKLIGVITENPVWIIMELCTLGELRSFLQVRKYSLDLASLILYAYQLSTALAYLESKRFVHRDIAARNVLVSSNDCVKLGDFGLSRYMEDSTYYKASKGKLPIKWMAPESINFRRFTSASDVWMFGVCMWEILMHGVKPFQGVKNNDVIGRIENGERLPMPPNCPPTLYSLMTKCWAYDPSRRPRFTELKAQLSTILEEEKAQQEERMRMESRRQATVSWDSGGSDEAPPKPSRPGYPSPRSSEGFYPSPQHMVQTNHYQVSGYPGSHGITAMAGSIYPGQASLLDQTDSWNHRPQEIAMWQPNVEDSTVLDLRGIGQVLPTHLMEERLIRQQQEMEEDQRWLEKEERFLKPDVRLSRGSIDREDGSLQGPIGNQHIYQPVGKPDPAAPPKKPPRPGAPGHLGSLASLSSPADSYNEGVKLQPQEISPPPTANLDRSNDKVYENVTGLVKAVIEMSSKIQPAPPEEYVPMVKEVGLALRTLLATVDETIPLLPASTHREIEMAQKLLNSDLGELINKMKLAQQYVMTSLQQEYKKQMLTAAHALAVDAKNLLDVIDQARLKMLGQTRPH
T2 sequence (Q05397 whole entry): as above

Turning to “2-({5-Chloro-2-[(1-ethyl-1H-pyrazol-5-yl)amino]-4-pyridinyl}amino)-N-ethylbenzamide [Example 44]”, the “Assay 1 FAK TRF PXC50” value at GST-tagged FAK amounted to 8.2. The “Assay 2 FAK H 31284A TRF PXC50” value in experiment [1] was determined as 7.2.
Take `CCNC(=O)c1ccccc1Nc1cc(Nc2cc(C)nn2C)ncc1Cl` [Example 43, 2-({5-Chloro-2-[(1,3-dimethyl-1H-pyrazol-5-yl)amino]-4-pyridinyl}amino)-N-ethylbenzamide]: the results for the IC50 (on GST-tagged FAK; in experiment [1]) were 5.01 nM and 25.1 nM, respectively.
`CNC(=O)c1cc(F)ccc1Nc1cc(Nc2cc(C)nn2C)ncc1Cl` [Example 7, 2-({5-Chloro-2-[(1,3-dimethyl-1H-pyrazol-5-yl)amino]-4-pyridinyl}amino)-5-fluoro-N-methylbenzamide]: the results for the IC50 (on GST-tagged FAK; in experiment [1]) were 0.794 nM and 10 nM, respectively.
On to `CNC(=O)c1ccccc1Nc1cc(Nc2cc(C)nn2C)ncc1Cl` [Example 5, 2-({5-Chloro-2-[(1,3-dimethyl-1H-pyrazol-5-yl)amino]-4-pyridinyl}amino)-N-methylbenzamide], for which the values for the IC50 (at GST-tagged FAK; in experiment [1]) were 1 nM and 7.94 nM, respectively.
The corresponding values for `CCn1nc(C(=O)N(C)CCN(C)C)cc1Nc1cc(Nc2ccccc2C(=O)NC)c(Cl)cn1` [Example 25, 5-{[5-Chloro-4-({2-[(methylamino)carbonyl]phenyl}amino)-2-pyridinyl]amino}-N-[2-(dimethylamino)ethyl]-1-ethyl-N-methyl-1H-pyrazole-3-carboxamide] are 2.51 nM and 31.6 nM.
Consider `CNC(=O)c1ccccc1Nc1cc(Nc2cc(-c3ccccc3)nn2C)ncc1Cl` [Example 1, 2-[5-Chloro-2-(2-methyl-53-ylamino)-pyridin-4-ylamino]-N-methyl-benzamide], for which the IC50 was 2 nM on GST-tagged FAK and 15.8 nM in experiment [1].
For `CNC(=O)c1ccccc1Nc1cc(Nc2cc(C)nn2CCO)ncc1Cl` [Example 16, 2-[(5-Chloro-2-{[1-(2-hydroxyethyl)-3-methyl-1H-pyrazol-5-yl]amino}-4-pyridinyl)amino]-N-methylbenzamide], the IC50 was 1.26 nM at GST-tagged FAK and 20 nM in experiment [1].
Taken in the same sequence, the figures for `CNC(=O)c1ccccc1Nc1cc(Nc2ccnn2C)ncc1Cl` [Example 2, 2-({5-Chloro-2-[(1-methyl-1H-pyrazol-5-yl)amino]-4-pyridinyl}amino)-N-methylbenzamide] were 1.58 nM and 10 nM.
The corresponding values for `CNC(=O)c1ccccc1Nc1cc(Nc2cc(C)nn2C(C)C)ncc1Cl` [Example 4, 2-[(5-Chloro-2-{[3-methyl-1-(1-methylethyl)-1H-pyrazol-5-yl]amino}-4-pyridinyl)amino]-N-methylbenzamide] are 1 nM and 6.31 nM.
Taken in the same sequence, the figures for `CCn1nc(C(=O)NCCN(C)C)cc1Nc1cc(Nc2ccccc2C(=O)NC)c(Cl)cn1` [Example 24, 5-{[5-Chloro-4-({2-[(methylamino)carbonyl]phenyl}amino)-2-pyridinyl]amino}-N-[2-(dimethylamino)ethyl]-1-ethyl-1H-pyrazole-3-carboxamide] were 6.31 nM and 63.1 nM.
On to `CCn1nc(C(=O)NOC)cc1Nc1cc(Nc2ccccc2C(=O)NC)c(Cl)cn1` [Example 19, 5-{[5-Chloro-4-({2-[(methylamino)carbonyl]phenyl}amino)-2-pyridinyl]amino}-1-ethyl-N-(methyloxy)-1H-pyrazole-3-carboxamide], for which the IC50 is 5.01 nM at GST-tagged FAK and 63.1 nM in experiment [1].
Taken in the same sequence, the figures for `CCNC(=O)c1ccccc1Nc1cc(Nc2cc(C)nn2CC)ncc1Cl` [Example 42, 2-({5-Chloro-2-[(1-ethyl-3-methyl-1H-pyrazol-5-yl)amino]-4-pyridinyl}amino)-N-ethylbenzamide] were 12.6 nM and 50.1 nM.
Turning to “2-({5-Chloro-2-[(1-ethyl-1H-pyrazol-5-yl)amino]-4-pyridinyl}amino)-4,5-difluoro-N-methylbenzamide [Example 10]”, the “Assay 1 FAK TRF PXC50” value at GST-tagged FAK was 9.1. Also, in experiment [1], the “Assay 2 FAK H 31284A TRF PXC50” value was found to be 8.
On to `CCNC(=O)c1ccccc1Nc1cc(Nc2cc(C)nn2C(C)C)ncc1Cl` [Example 45, 2-[(5-Chloro-2-{[3-methyl-1-(1-methylethyl)-1H-pyrazol-5-yl]amino}-4-pyridinyl)amino]-N-ethylbenzamide], for which the IC50 at GST-tagged FAK was 10 nM; in experiment [1], 63.1 nM.
Taken in the same sequence, the figures for `CNC(=O)c1cc(N2CCN(CCO)CC2)ccc1Nc1cc(Cl)ncc1Cl` [Example 66, 2-[(2,5-Dichloro-4-pyridinyl)amino]-5-[4-(2-hydroxyethyl)-1-piperazinyl]-N-methylbenzamide] were 2 nM and 31.6 nM.
The corresponding values for `CCOC(=O)c1cc(Nc2cc(Nc3ccccc3C(=O)NC)c(Cl)cn2)n(CC)n1` [Example 17, Ethyl 5-{[5-chloro-4-({2-[(methylamino)carbonyl]phenyl}amino)-2-pyridinyl]amino}-1-ethyl-1H-pyrazole-3-carboxylate] are 1.26 nM and 39.8 nM.
Turning to `CCn1nc(C)cc1Nc1cc(Nc2ccccc2C(=O)NC)c(Cl)cn1` [Example 13, 2-({5-Chloro-2-[(1-ethyl-3-methyl-1H-pyrazol-5-yl)amino]-4-pyridinyl}amino)-N-methylbenzamide], the IC50 at GST-tagged FAK was 0.501 nM; in experiment [1] it was 2 nM.
The corresponding values for `CCn1nc(C(=O)NC)cc1Nc1cc(Nc2ccccc2C(=O)NC)c(Cl)cn1` [Example 20, 5-{[5-Chloro-4-({2-[(methylamino)carbonyl]phenyl}amino)-2-pyridinyl]amino}-1-ethyl-N-methyl-1H-pyrazole-3-carboxamide] are 10 nM and 39.8 nM.
The corresponding values for `CCn1nccc1Nc1cc(Nc2ccccc2C(=O)NOC)c(Cl)cn1` [Example 40, 2-({5-Chloro-2-[(1-ethyl-1H-pyrazol-5-yl)amino]-4-pyridinyl}amino)-N-(methyloxy)benzamide] are 1.26 nM and 2.51 nM.
Take `CCn1nc(C)cc1Nc1cc(Nc2ccccc2C(=O)NC)c(C(F)(F)F)cn1` [Example 32, 2-{[2-[(1-Ethyl-3-methyl-1H-pyrazol-5-yl)amino]-5-(trifluoromethyl)-4-pyridinyl]amino}-N-methylbenzamide]: the IC50 is 0.398 nM at GST-tagged FAK and 1 nM in experiment [1].
Turning to `CNC(=O)c1ccccc1Nc1cc(Nc2cc(C3CC3)nn2C)ncc1Cl` [Example 6, 2-({5-Chloro-2-[(3-cyclopropyl-1-methyl-1H-pyrazol-5-yl)amino]-4-pyridinyl}amino)-N-methylbenzamide], the values for the IC50 (on GST-tagged FAK; in experiment [1]) were 1.26 nM and 5.01 nM, respectively.
Taken in the same sequence, the figures for `CNC(=O)c1ccccc1Nc1cc(Nc2cc(C)nn2CCN(C)C)ncc1Cl` [Example 23, 2-{[5-Chloro-2-({1-[2-(dimethylamino)ethyl]-3-methyl-1H-pyrazol-5-yl}amino)-4-pyridinyl]amino}-N-methylbenzamide] were 79.4 nM and 200 nM.
Taken in the same sequence, the figures for `CNC(=O)c1cc(F)c(F)cc1Nc1cc(Nc2cc(C)nn2C)ncc1Cl` [Example 9, 2-({5-Chloro-2-[(1,3-dimethyl-1H-pyrazol-5-yl)amino]-4-pyridinyl}amino)-4,5-difluoro-N-methylbenzamide] were 1 nM and 6.31 nM.
The corresponding values for `CNC(=O)c1ccccc1Nc1cc(Nc2ccnn2C2CCN(C)CC2)ncc1Cl` [Example 22, 2-[(5-Chloro-2-{[1-(1-methyl-4-piperidinyl)-1H-pyrazol-5-yl]amino}-4-pyridinyl)amino]-N-methylbenzamide] are 31.6 nM and 251 nM.
In the case of `CNC(=O)c1ccccc1Nc1cc(Nc2cc(C)nn2C)ncc1C(F)(F)F` [Example 28, 2-{[2-[(1,3-Dimethyl-1H-pyrazol-5-yl)amino]-5-(trifluoromethyl)-4-pyridinyl]amino}-N-methylbenzamide], the IC50 at GST-tagged FAK is 0.398 nM; in experiment [1], 2.51 nM.
The corresponding values for `CNC(=O)c1cccc(F)c1Nc1cc(Nc2cc(C)nn2C)ncc1Cl` [Example 8, 2-({5-Chloro-2-[(1,3-dimethyl-1H-pyrazol-5-yl)amino]-4-pyridinyl}amino)-3-fluoro-N-methylbenzamide] are 0.631 nM and 5.01 nM.
The corresponding values for `CCn1nc(CO)cc1Nc1cc(Nc2ccccc2C(=O)NC)c(Cl)cn1` [Example 15, 2-[(5-Chloro-2-{[1-ethyl-3-(hydroxymethyl)-1H-pyrazol-5-yl]amino}-4-pyridinyl)amino]-N-methylbenzamide] are 2.51 nM and 20 nM.
